Values of other authors as cited in patent US20200113856A1, “NON-PRESCRIPTION MOTION SICKNESS MEDICATION CONTAINING AN ANALGESIC, AN H2 BLOCKER, AND AT LEAST ONE ANTACID” (priority 2018, published 2020).

Tests used:
motion sickness = conditions: patch worn behind the ear
risk of stroke = conditions: in vivo
platelet thromboxane = conditions: high-dose, throughout the dosing interval
blood pressure = conditions: several types of rat models susceptible to salt-sensitive hypertension, in contrast with sodium chloride
reflux esophagitis = conditions: patients with reflux esophagitis
histamine H2 receptors = histamine H2 receptors (Homo sapiens, UniProt P25021); conditions: equimolar basis
histamine H2 receptors, sequence (P25021 whole entry): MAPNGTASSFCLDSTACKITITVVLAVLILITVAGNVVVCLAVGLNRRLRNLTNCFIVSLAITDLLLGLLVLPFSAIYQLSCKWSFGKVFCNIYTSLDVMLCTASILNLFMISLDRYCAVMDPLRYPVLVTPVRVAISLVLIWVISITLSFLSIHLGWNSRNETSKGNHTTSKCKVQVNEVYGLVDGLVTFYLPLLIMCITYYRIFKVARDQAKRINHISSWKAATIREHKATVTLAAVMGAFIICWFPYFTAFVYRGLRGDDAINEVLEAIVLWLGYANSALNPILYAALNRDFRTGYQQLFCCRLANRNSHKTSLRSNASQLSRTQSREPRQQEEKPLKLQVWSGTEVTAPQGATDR

CC(=O)Nc1ccc(O)cc1 [Acetaminophen]
duration of effects (pain or fever; in vivo): between two and four hours

CN1[C@@H]2C[C@@H](OC(=O)[C@H](CO)c3ccccc3)C[C@H]1[C@@H]1O[C@@H]12 [Scopolamine]
duration of effectiveness of patch (motion sickness): three days

COc1ccc2cc([C@H](C)C(=O)O)ccc2c1 [Naproxen]
associated risk of stroke compared with ibuprofen (risk of stroke): roughly 50% | suppression of platelet thromboxane (platelet thromboxane): near-complete suppression

O=C([O-])O.[Na+] [Sodium bicarbonate, sodium hydrogen carbonate]
effect on blood pressure (blood pressure): no effect

CNC(=C[N+](=O)[O-])NCCSCc1csc(CN(C)C)n1 [nizatidine]
effectiveness as maintenance therapy versus famotidine (reflux esophagitis): more effective H2RA than famotidine

NC(N)=Nc1nc(CSCCC(N)=NS(N)(=O)=O)cs1 [famotidine]
times more potent than cimetidine (histamine H2 receptors): ~20 times | times more potent than nizatidine (histamine H2 receptors): approximately 7.5 times | times more potent than ranitidine (histamine H2 receptors): approximately 7.5 times

CC(=O)Oc1ccccc1C(=O)O [Aspirin, acetylsalicylic acid]
time until effects begin (pain or fever; for pain or fever): ≤ 30 min
